Read-outs that look alike come from different tables or passages of the source. Where only a bound is given, the exact number is not on record here.

Here are results for 2 molecules from US6632921B1, “Seryl-lysyl-based peptide and peptidomimetic inhibitors of N-myristoyl transferase as anti-infective agents” (G. D Searle & Co, priority 1995, dated 2003).

Test [1] concerns C. albicans Arf N-myristoylation. The experiment in a line: Gel shift assay for degree of N-myristoylation of Arf in C. albicans cultures. It is filed as cell-based, Candida albicans. To be noted: 200 μM, 24° C., strain MONCA105; for reduction in Arf N-myristoylation: 2 h. From the text: N-myristoylation of C. albicans ADP ribosylation factor (Arf), produces a change in its electrophoretic mobility during SDS-polyacrylamide gel electrophoresis. The acylated species migrates more rapidly than the nonmyristoylated species [J. K. Lodge et al, J. Biol. Chem., 269, 2996-3009 (1994)].
Based on these findings, acylation of C. albicans Arf, measured using this protein gel shift assay, was used to define the effects of peptide analog inhibitors of C. albicans NMT on the efficiency of protein N-myristoylation in cultures of this fungal pathogen.
The assay was performed as follows. A single colony of Candida albicans strain MONCA105 NMT, [R. A Weinberg et al, Mol. Micro., in press, (1995)] was innoculated into YPD medium (YPD=1% yeast extract, 2% peptone, 2% dextrose). Cultures were shaken at 24° C. for 12-16 h. Cells were recovered by centrifugation, washed 3 times with sterile PBS, pH 7.4 and resuspended in YPD at an OD600 of 1.0-1.5. Fifty microliters of a 20 mM stock solution of peptide analog (prepared in sterile deionized H2O) were added to a sterile polypropylene tube containing 4.5 mL of fresh YPD medium. Five hundred microliters of the C. albicans culture was then added to the tubes. Controls consisted of no added peptide analog (i.e. water alone).The tubes were incubated at 24° C. with vigorous shaking for 2 hr or 4 hr. For each experiment, duplicate tubes were assayed for each condition and at each time point. Cells were recovered by centrifugation, resuspended in 200 μL of Lysis Buffer (0.125M Tris-HCl, pH 6.8/4% SDS), and transferred to microfuge tubes containing 200 μL of glass beads (bead diameter=425-600 μm, Sigma).The slurry was vortexed 3 times for 1 min each. Between each cycle of vortexing, the tubes were placed on ice for 1 min. The mixture was then placed in a boiling water bath for 10 min, vortexed once again for 1 min and subsequently spun at 10,000×g for 2 min. The cleared supernatant fraction was removed, spun again at 10,000×g for 5 min and the total protein concentration determined. […]

The test system of test [2] is Candida albicans, strain B311. The experiment in a line: Antifungal susceptibility testing, microdilution broth, pH 5.4/30° C./YNB. It is filed as cell-based. The following applies: B311, 24 h. Here is the method: Antifungal Screens were set up initially against Candida albicans, strain B311, and Cryotococcus neoformans, strain L210425. Both pathogens, (originally from the stock culture collection, Medical mycology research center, Washington university-Barnes hospital), were obtained from Dr.Kobayashi, Prof.of infectious diseases, Washington University, St.Louis, Mo.
All cultures are maintained at 30° C. on Sabouraud's dextrose agar slants and subcultured at monthly intervals to fresh medium. All inocula for susceptibility testing are prepared in yeast nitogen base(YNB, Difco) broth.
A loopful of growth from Sabouraud dextrose agar slant is inoculated into 4 ml of YNB broth media and incubated at 30° C. overnight (18-24 hrs) with constant agitation (Gyratory Shaker, New Brunswick Scientific). Prior to setting up susceptibility testing, the organisms are counted in a hemocytometer, and diluted as needed into assay media.
1) (Assay at DH 5.4/30° C. Incubation/YNB Media).
Antifungal assays were carried out initially by a modification of the method published by Jones, et. al; (1), and communicated to Searle by Dr. Kobayashi, Washington University. [R. N. Jones et al, Manual of Clinical Microbiology, 4th ed., (1985)]
The antifungal susceptibility testing consists of a microdilution broth procedure performed in 96 well microtiter plates (Costar, cat#3799). Briefly, test compounds from a 20 mM stock solution in DMSO are diluted into sterile, deionized water (final DMSO concentration not exceeding 1%), to yield 2× the desired concentration (100 uM, 10 uM and 1 uM for an initial screen, or a selected concentration range in serial 2 fold dilutions for EC50 determination). One hundred microliters (100 ul) of each concentration is dispensed into triplicate wells of a 96 well microtiter plate. Appropriate dilutions of a suspension of C.albicans (1×10^6 cells/ml) in 2× YNB is distributed into each of the wells, including growth control wells containing no test compound as well as control wells with 0.5% DMSO. Amphotericin B at 0.05, 1 and 5 ug/ml is included in each assay plate as a positive control. The plates are incubated at 30° C. and cell growth is scored by reading the absorbance at 590 nm on an Elisa plate reader(Dynatech, MR.5000).
In general terms: In broth dilution the organism is exposed to a series of concentrations in liquid medium.

The test system of the next test is C.glab. The experiment in a line: Antifungal susceptibility testing, pH 5.4 assay, different strains of Candida. The class given is cell-based, C.glabrata. To be noted: Nakaseomyces glabratus, 24 hr.
The test system of a further test is C.para. Described as above. It is filed as cell-based, C.parasilosis. The following applies: 24 hr.
Setting [3] is: pH 5.4, read-out: ACTIVITY (EC50) C.alb (B311).

With `Cc1nccn1CCCCc1ccc(CC(=O)N[C@H](CO)C(=O)N[C@H](CCCCN)C(=O)N[C@H](CC2CCCCC2)C(=O)O)cc1` [Comparator Compound A, D-Alanine, 3-cyclohexyl-N-[N^2-[N-[[4-[4-(2-methyl-1H-imidazol-1-yl)butyl]phenyl]acetyl]-D-seryl]-D-lysyl]-, bis-trifluoroacetate], the “reduction in Arf N-myristoylation” value in test [1] is “no detectable reduction”. The “reduction of Arf acylation” value in test [1] (4 h) is reported as “no detectable reduction”. Also, the EC50 in test [2] (setting [3]) was > 400 µM; in test [2] (read-out: caEC50 24 hours) it was > 400 µM; in the test with C.glab., > 250 µM; in the test on C.para., > 250 µM.

On to `Cc1nccn1CCCCc1ccc(CC(=O)N[C@@H](CO)C(=O)N[C@@H](CCCCN)C(=O)N[C@@H](CC2CCCCC2)C(=O)O)cc1` [Example 2, L-Alanine, 3-cyclohexyl-N-[N^2-[N-[[4-[4-(2-Methyl-1H-imidazol-1-yl)butyl]phenyl]acetyl]-L-seryl]-L-lysyl]-, bis-trifluoroacetate], for which the “reduction in Arf N-myristoylation” value in test [1] is on record as ~10%. Further, the EC50 in test [2] (setting [3]) was 35 µM; in test [2] (pH 5.4, read-out: caEC50 24 hours), 35 µM; in the test with C.glab., > 250 µM; in the test with C.para., 40 µM.
